These results are taken from ChEMBL document CHEMBL1159195, “Purine and nucleoside metabolites from the Antarctic sponge Isodictya erinacea” (1998).

Assay [1] relates to Perknaster fuscus. Nature of the assay: Deterrent activity against Perknaster fuscus assessed as induction of sustained retractions of tube-feet by sea-star deterrent assay. It is filed as functional, organism-based.
In assay [2] the test system is Staphylococcus aureus. The experiment in a line: Antimicrobial activity against Staphylococcus aureus at 120 ug/disk after 48 hrs by paper disk method. It is filed as functional, organism-based.
Assay [3] deals with Staphylococcus epidermidis. The experiment in a line: Antimicrobial activity against Staphylococcus epidermidis at 120 ug/disk after 48 hrs by paper disk method. The class given is functional, organism-based.
The subject of assay [4] is Escherichia coli. Nature of the assay: Antimicrobial activity against […] coli at 120 ug/disk after 48 hrs by paper disk method. It is filed as functional, organism-based.
The test system of assay [5] is L5178Y. Nature of the assay: Cytotoxicity against mouse L5178Y cells by trypan blue exclusion method. The class given is functional. Conditions: read-out: LD50 (the source's name).

Structures are written as SMILES. Values after ≈ are worked out from the molar mass of the structure shown. Active and inactive are the calls of the source. The calls are words filed in the database; no cut-off is given here.

With `O=Cc1ccc(O)cc1`, the outcome in assay [1] was Active.
As for `O=C(O)CCNc1ncnc2[nH]c(=O)[nH]c12` [ERINACEAN], the outcome in assay [2], in assay [3] and in assay [4] was Active. Besides, in assay [5], the CC50 was determined as 50 µg/mL (≈ 224 µM). Further, in assay [1], the result was inactive.
In the case of `O=c1[nH]cnc2c1ncn2[C@@H]1O[C@H](CO)[C@@H](O)[C@H]1O`, the outcome in assay [1] was inactive.
On the same count and under the same terms, for `O=c1ccn([C@@H]2O[C@H](CO)[C@@H](O)[C@H]2O)c(=O)[nH]1` the value was “inactive”; for `Cn1c(N)nc2c(ncn2C)c1=O`, “inactive”; for `Nc1ccn([C@H]2C[C@H](O)[C@@H](CO)O2)c(=O)n1`, “inactive”.
As for `Cn1cnc2ncnc(N)c21`, in assay [1], the result was inactive.
